From patent publication US20060235222A1, “Indole-derivative modulators of steroid hormone nuclear receptors” (ELI LILLY AND COMPANY, priority 2003, published 2006)

Assays:
[1] = target: T1, human MR (Homo sapiens, UniProt P08235); assay: Mineralocorticoid Receptor Binding Assay (Method 1), [3H]-aldosterone competition; conditions: 0.5 nM [3H]-aldosterone, human MR expressed in Sf9 cells
T1 construct: The full length human MR gene is cloned from a human kidney or human brain cDNA library; inferred from own knowledge of the pAcHLT vector (N); made in house; host or cells: Sf9 insect cells (baculovirus)
T1 sequence (P08235 1-984): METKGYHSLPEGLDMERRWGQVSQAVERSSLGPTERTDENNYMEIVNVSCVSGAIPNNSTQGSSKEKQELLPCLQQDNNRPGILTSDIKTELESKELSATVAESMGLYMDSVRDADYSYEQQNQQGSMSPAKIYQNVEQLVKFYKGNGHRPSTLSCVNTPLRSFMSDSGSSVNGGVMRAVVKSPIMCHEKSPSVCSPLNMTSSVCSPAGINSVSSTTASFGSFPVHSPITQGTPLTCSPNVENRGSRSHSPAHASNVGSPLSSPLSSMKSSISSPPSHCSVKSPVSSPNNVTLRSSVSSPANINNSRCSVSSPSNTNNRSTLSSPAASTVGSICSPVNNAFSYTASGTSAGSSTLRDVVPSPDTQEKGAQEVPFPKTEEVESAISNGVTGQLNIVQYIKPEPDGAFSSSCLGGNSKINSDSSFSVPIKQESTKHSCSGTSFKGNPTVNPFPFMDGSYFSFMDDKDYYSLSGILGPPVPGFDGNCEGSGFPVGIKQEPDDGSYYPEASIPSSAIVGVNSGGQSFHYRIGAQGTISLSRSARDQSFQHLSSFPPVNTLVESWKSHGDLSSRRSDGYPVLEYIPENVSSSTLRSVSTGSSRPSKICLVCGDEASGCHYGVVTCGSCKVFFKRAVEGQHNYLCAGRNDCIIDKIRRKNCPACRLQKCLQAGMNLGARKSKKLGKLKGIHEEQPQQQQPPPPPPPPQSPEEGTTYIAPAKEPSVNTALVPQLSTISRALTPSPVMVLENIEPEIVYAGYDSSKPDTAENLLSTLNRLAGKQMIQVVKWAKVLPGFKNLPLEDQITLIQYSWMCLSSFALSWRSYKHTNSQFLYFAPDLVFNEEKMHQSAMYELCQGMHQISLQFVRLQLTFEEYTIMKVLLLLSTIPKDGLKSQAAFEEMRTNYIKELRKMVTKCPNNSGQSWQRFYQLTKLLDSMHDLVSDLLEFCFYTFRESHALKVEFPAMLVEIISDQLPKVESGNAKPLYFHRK
Experimental: Mineralocorticoid Receptor Binding Assay (Method 1):
The full length human MR gene is cloned from a human kidney or human brain cDNA library. […] The PCR reaction is performed in a final volume of 50 μl containing about 1 μl of a 50× stock solution of polymerase; about 1 μl of a 50× stock solution of dNTP; about 5 μl of an appropriate PCR buffer; about 1 μl of each primer; about 5 μl of a H. kidney or H. brain cDNA library; and about 36 μl of water. The reaction is allowed to denature for about 30 seconds at 95 degrees Celsius, anneal for about 30 seconds at 55 degrees Celsius, and extend for about 5 minutes at 72 degrees Celsius, the sequence being repeated for a total of about 35 cycles. […] To extract the cDNA product from the agarose gel, the QIAEX II Gel Extraction protocol (QIAGEN, Inc.) is employed according to the manufacturer's instructions. Following extraction, the MR cDNA is cloned into an appropriate cloning vector (Zero Blunt TOPO PCR Cloning Kit (Invitrogen, Inc.) and a pAcHLT-baculovirus transfer vector (B.D./Pharminogen), then expressed in SF9 insect cells, essentially according to manufacturer's instructions. Sf9 cells are grown at a scale where gram quantity cell pellets are obtained for subsequent use in the MR binding assay. Harvested cell pellets are lysed by repeated freeze-thaw cycles (about 4) in a suitable lysis buffer then centrifuged at about 1×10^3 G (with the supernatant being saved for future assays).
MR binding assays are performed in a final total volume of about 250 μl containing about 20-25 μg of protein and 0.5 nM of [^3H]-aldosterone plus varying concentrations of test compound or vehicle. The assay binding buffer consists of 30 mM sodium molybdate, 30 mM of TRIS-HCl, 5 mM sodium phosphate, 5 mM sodium pyrophosphate, and about 10% glycerol, pH=7.5.
Incubations are carried out at 4 degrees Celsius with shaking for about 16 hours. 200 μl aliquots of each incubation are filtered onto Millipore HA 0.45 micron 96-well filter plates, pre-moistened with cold 30 mM TRIS-HCl. The filter plates are suctioned dry with vacuum and immediately washed 3× with cold 30 mM TRIS-HCl. The plates are then punched out and the amount of receptor-ligand complex is determined by liquid scintillation counting using 4 ml of Ready Protein Plus™ liquid scintillation cocktail.

[2] = target: T2, glucocorticoid receptor (Homo sapiens, UniProt P04150); assay: Glucocorticoid Receptor Binding Assay (Method 1), [3H]-dexamethasone competition, A549 cell extract; conditions: 1.86 nM [3H]-dexamethasone, read-out: GR Ki (nM) Method 1
T2 construct: containing 50-200 ug of A549 cell extract and 1.86 nM; host or cells: A549 human lung epithelial cells
T2 sequence (P04150 1-777): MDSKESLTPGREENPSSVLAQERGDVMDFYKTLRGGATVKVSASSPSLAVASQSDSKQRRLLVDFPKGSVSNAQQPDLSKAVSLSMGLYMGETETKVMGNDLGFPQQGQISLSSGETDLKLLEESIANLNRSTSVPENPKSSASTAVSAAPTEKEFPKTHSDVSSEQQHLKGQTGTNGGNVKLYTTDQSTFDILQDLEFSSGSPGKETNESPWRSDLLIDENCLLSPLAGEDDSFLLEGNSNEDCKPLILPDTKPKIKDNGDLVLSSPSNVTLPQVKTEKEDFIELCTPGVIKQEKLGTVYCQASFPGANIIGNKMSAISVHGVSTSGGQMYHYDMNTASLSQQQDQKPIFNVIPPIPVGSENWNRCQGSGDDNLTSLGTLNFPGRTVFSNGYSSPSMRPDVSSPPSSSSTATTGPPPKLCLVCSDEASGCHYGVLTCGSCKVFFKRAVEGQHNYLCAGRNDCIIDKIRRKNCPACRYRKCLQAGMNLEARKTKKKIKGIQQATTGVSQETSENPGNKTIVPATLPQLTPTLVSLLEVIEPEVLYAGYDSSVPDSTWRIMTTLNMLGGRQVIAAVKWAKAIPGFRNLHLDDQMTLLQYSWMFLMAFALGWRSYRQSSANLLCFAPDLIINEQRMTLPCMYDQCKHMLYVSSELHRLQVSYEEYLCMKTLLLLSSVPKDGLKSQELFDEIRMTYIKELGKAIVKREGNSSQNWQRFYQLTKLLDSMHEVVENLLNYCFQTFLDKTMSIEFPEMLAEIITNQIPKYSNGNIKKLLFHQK
Experimental: Glucocorticoid Receptor Binding Assay (Method 1):
A549 human lung epithelial cells (ATCC) are grown at a scale where gram quantity cell pellets are obtained. Harvested cell pellets are washed twice in cold phosphate buffered saline, centrifuged, and resuspended in cold assay binding buffer. The assay binding buffer consists of 10% glycerol, 50 mM Tris-HCl (pH7.2), 75 mM sodium chloride, 1.5 mM magnesium chloride, 1.5 mM EDTA, and 10 mM sodium molybdate. Cell suspensions were lysed via sonication, centrifuged, and the “extract” supernatant is snap frozen and stored at −80 C until needed.
Incubations are carried out at 4 degrees Celsius for 16 hours. After incubation, 70 ul of 3× dextran-coated charcoal solution is added to each reaction, mixed, and incubated for 8 minutes at RT. 3×-dextran-coated charcoal solution consists of 250 ml assay binding buffer, 3.75 g Norit A charcoal (Sigma), and 1.25 g dextran T-70 (Amersham). Charcoal/unbound radioligand complexes are removed by centrifugation of the plate and 140 ul of supernatant from each well is transferred to another 96 well Optiplate (Packard Instruments). 200 ul of Microscint-20 scinillant (Packard Instruments) is added to each well and amount of receptor bound radioligand is determined using Packard Instruments TopCount instrument.

Structure (SMILES) | Ki [1] | Ki [2]
CCC(CC)(c1cccc(F)c1)c1c[nH]c2c(NS(C)(=O)=O)cccc12 [Example 72, N-{3-[1′-Ethyl-1-(3-fluoro-phenyl)-propyl]-1H-indol-7-yl}-methanesulfonamide] | < 500 nM | < 500 nM
CCC(C)(c1ccc(OC)cc1)c1c[nH]c2c(C)cccc12 (stereo not drawn) [Example 31, 3-[1-(4-Methoxy-phenyl)-1-methyl-propyl]-7-methyl-1H-indole] | < 500 nM | < 500 nM
CCC(CC)(c1ccc2c(c1)CCO2)c1c[nH]c2c(NS(C)(=O)=O)cccc12 [Example 3, N-{3-[1-(2,3-Dihydro-benzofuran-5-yl)-1-ethyl-propyl]-1H-indol-7-yl}-methanesulfonamide] | < 500 nM | < 500 nM
CCC(CC)(c1ccc(C)cc1)c1c[nH]c2c(NS(C)(=O)=O)cccc12 [Example 54, N-[3-(1-Ethyl-1-p-tolyl-propyl)-1H-indol-7-yl]-methanesulfonamide] | < 500 nM | < 500 nM
CCC(CC)(c1ccc(C(F)(F)F)cc1)c1c[nH]c2c(NS(C)(=O)=O)cccc12 [Example 63, N-{3-[1-Ethyl-1-(4-trifluoromethyl-phenyl)-propyl]-1H-indol-7-yl}-methanesulfonamide] | < 500 nM | < 500 nM
CCC(CC)(c1ccc2c(c1)OCCO2)c1c[nH]c2c(NS(C)(=O)=O)cccc12 [Example 128, N-{3-[1-(2,3-Dihydro-benzo[1,4]dioxin-6-yl)-1-ethyl-propyl]-1H-indol-7-yl}-methanesulfonamide] | < 500 nM | –
COc1ccc(C(C)(c2c[nH]c3c(NS(C)(=O)=O)cccc23)C2CC2)cc1F (stereo not drawn) [Example 123] | < 500 nM | –
CC(c1ccc2c(c1)OCCO2)(c1c[nH]c2c(NS(C)(=O)=O)cccc12)C1CC1 (stereo not drawn) [Example 129, N-{3-[1-Cyclopropyl-1-(2,3-dihydro-benzo[1,4]dioxin-6-yl)-ethyl]-1H-indol-7-yl}-methanesulfonamide] | < 500 nM | –
COc1cc(C(C)(c2c[nH]c3c(NS(C)(=O)=O)cccc23)C2CC2)ccc1Cl (stereo not drawn) [Example 124, N-{3-[1-(4-Chloro-3-methoxy-phenyl)-1-cyclopropyl-ethyl]-1H-indol-7-yl}-methanesulfonamide] | < 500 nM | –
C[C@](c1ccc2c(c1)OCCO2)(c1c[nH]c2c(NS(C)(=O)=O)cccc12)C1CC1 [Example 194] | < 500 nM | –
CCC(CC)(c1ccc2ccn(C(C)=O)c2c1)c1c[nH]c2c(NS(C)(=O)=O)cccc12 [Example 183] | < 500 nM | –
CCC(CC)(c1ccc2c(c1)nc(C)n2C)c1c[nH]c2c(NS(C)(=O)=O)cccc12 [Example 198] | < 500 nM | –
CC(c1ccc(F)cc1)(c1c[nH]c2c(NS(C)(=O)=O)cccc12)C1CCC1 (stereo not drawn) [Example 127, N-{3-[1-Cyclobutyl-1-(4-fluoro-phenyl)-ethyl]-1H-indol-7-yl}-methanesulfonamide] | < 500 nM | –
CC(C)(c1ccccc1-c1ccccc1)c1c[nH]c2c(NS(C)(=O)=O)cccc12 [Example 34, N-[3-(1-Biphenyl-2-yl-1-methyl-ethyl)-1H-indol-7-yl]-methanesulfonamide] | < 500 nM | –
COc1cc(C(C)(c2c[nH]c3c(NS(C)(=O)=O)cccc23)C2CC2)ccc1F (stereo not drawn) [Example 125, N-{3-[1-Cyclopropyl-1-(4-fluoro-3-methoxy-phenyl)-ethyl]-1H-indol-7-yl}-methanesulfonamide] | < 500 nM | –
CCC(CC)(c1cccc2oc(C)cc12)c1c[nH]c2c(NS(C)(=O)=O)cccc12 [Example 184] | < 500 nM | –
CCC(CC)(c1ccc2c(c1)OCCO2)c1c[nH]c2c(NS(=O)(=O)CC)cccc12 [Example 133, N-{3-[1-(2,3-Dihydro-benzo[1,4]dioxin-6-yl)-1-ethyl-propyl]-1H-indol-7-yl}-ethanesulfonamide] | < 500 nM | –
CCC(CC)(c1ccc2sc(NC(C)=O)nc2c1)c1c[nH]c2c(NS(C)(=O)=O)cccc12 [Example 196] | < 500 nM | –
CC(c1ccc2c(c1)OCO2)(c1c[nH]c2c(NS(C)(=O)=O)cccc12)C1CC1 (stereo not drawn) [Example 131, N-[3-(1-Benzo[1,3]dioxol-5-yl-1-cyclopropyl-ethyl)-1H-indol-7-yl]-methanesulfonamide] | < 500 nM | –
CCC(CC)(c1ccc2cc(C)oc2c1)c1c[nH]c2c(NS(C)(=O)=O)cccc12 [Example 188] | < 500 nM | –
CCC(COC)(c1ccccc1)c1c[nH]c2c(NS(C)(=O)=O)cccc12 (stereo not drawn) [Example 74, N-[3-(1-Methoxymethyl-1-phenyl-propyl)-1H-indol-7-yl]-methanesulfonamide] | < 500 nM | –
CCS(=O)(=O)Nc1cccc2c([C@](C)(c3ccc(F)cc3F)C3CC3)c[nH]c12 (stereo in doubt) [Example 126, Ethanesulfonic acid {3-[1-cyclopropyl-1-(2,4-difluoro-phenyl)-ethyl]-1H-indol-7-yl}-amide] | < 500 nM | –
